Test results taken from the CheMixHub drug solubility set.

Test: xn = mol fraction of the nth substance listed, in the solute-free solvent

Nc1cccc(S(=O)(=O)c2cccc(N)c2)c1 + CC(C)O + O
solubility (g/100 g solution)
Conditions | 283.15 K | 288.15 K | 293.15 K | 298.15 K | 303.15 K | 308.15 K | 313.15 K | 318.15 K | 323.15 K | 328.15 K
x2 = 0.03225 | 0.0588 | 0.08 | 0.109 | 0.143 | 0.188 | 0.248 | 0.319 | 0.411 | 0.517 | 0.662
x2 = 0.06974 | 0.109 | 0.146 | 0.196 | 0.259 | 0.34 | 0.424 | 0.549 | 0.698 | 0.874 | 1.09
x2 = 0.1139 | 0.169 | 0.219 | 0.286 | 0.375 | 0.488 | 0.618 | 0.782 | 0.98 | 1.22 | 1.52
x2 = 0.1666 | 0.236 | 0.312 | 0.396 | 0.516 | 0.657 | 0.834 | 1.05 | 1.3 | 1.59 | 1.98
x2 = 0.2307 | 0.299 | 0.388 | 0.5 | 0.652 | 0.816 | 1.02 | 1.28 | 1.6 | 1.97 | 2.4
x2 = 0.3103 | 0.36 | 0.459 | 0.599 | 0.751 | 0.954 | 1.2 | 1.51 | 1.84 | 2.24 | 2.73
x2 = 0.4117 | 0.398 | 0.513 | 0.662 | 0.841 | 1.07 | 1.34 | 1.65 | 2.05 | 2.48 | 3.01
x2 = 0.5454 | 0.424 | 0.54 | 0.702 | 0.895 | 1.11 | 1.4 | 1.71 | 2.14 | 2.62 | 3.17
x2 = 0.7297 | 0.432 | 0.543 | 0.686 | 0.878 | 1.11 | 1.38 | 1.72 | 2.09 | 2.57 | 3.12

CC(N)C(=O)O (stereo not drawn) + O + CC(C)=O
solubility (g/100 g solution)
Conditions | x2 = 0.1 | x2 = 0.2 | x2 = 0.3 | x2 = 0.4 | x2 = 0.5 | x2 = 0.6 | x2 = 0.7 | x2 = 0.8 | x2 = 0.9
283.15 K | 0.0237 | 0.0301 | 0.047 | 0.0557 | 0.0712 | 0.135 | 0.382 | 1.03 | 3.44
293.15 K | 0.0407 | 0.0463 | 0.0511 | 0.0648 | 0.0791 | 0.17 | 0.457 | 1.34 | 4.17
303.15 K | 0.047 | 0.053 | 0.0603 | 0.0794 | 0.0969 | 0.22 | 0.611 | 1.73 | 5.02
313.15 K | 0.0547 | 0.0607 | 0.0696 | 0.0949 | 0.128 | 0.309 | 0.794 | 2.22 | 6.57
323.15 K | 0.0629 | 0.0786 | 0.0878 | 0.138 | 0.193 | 0.484 | 1.14 | 3.18 | 8.13

Cc1c(Br)cccc1C(=O)O + CN(C)C=O + CC#N
solubility (g/100 g solution)
Conditions | x2 = 0.106 | x2 = 0.224 | x2 = 0.355 | x2 = 0.502 | x2 = 0.668 | x2 = 0.858
278.15 K | 6.4 | 10.6 | 14.2 | 17.6 | 20.8 | 23.6
283.15 K | 7.69 | 12.4 | 16.8 | 20.7 | 24.4 | 25.8
288.15 K | 8.95 | 14.9 | 19.8 | 24.3 | 28.2 | 32
293.15 K | 11 | 17.3 | 23 | 28 | 32.5 | 36.6
298.15 K | 12.6 | 20.2 | 26.5 | 32.1 | 37.1 | 41.6
303.15 K | 14.5 | 23.3 | 30.5 | 36.5 | 42.1 | 47.1
308.15 K | 17.1 | 26.8 | 34.4 | 41.3 | 47.2 | 52.7
313.15 K | 19.5 | 30.5 | 38.9 | 46.3 | 52.7 | 58.5
318.15 K | 22.6 | 34.5 | 43.6 | 51.4 | 58.1 | 64.3
323.15 K | 26 | 38.8 | 48.6 | 56.7 | 63.8 | 70.3
328.15 K | 29.2 | 43.1 | 53.5 | 62 | 69.3 | 76

OCCN(CCO)c1nc(N2CCCCC2)c2nc(N(CCO)CCO)nc(N3CCCCC3)c2n1 + CCO + O
solubility (g/100 g solution)
Conditions | 293.15 K | 298.15 K | 303.15 K | 308.15 K | 313.15 K | 318.15 K | 323.15 K | 328.15 K
x2 = 0.3 | 1.64 | 1.81 | 2.52 | 3.79 | 5.33 | 8.14 | 12.5 | 18
x2 = 0.4 | 2.59 | 3.74 | 5.59 | 7.99 | 10.8 | 16 | 22.2 | 29.9
x2 = 0.5 | 4.37 | 6.13 | 8.44 | 11.4 | 15.2 | 20.7 | 28.1 | 36.2
x2 = 0.6 | 5.48 | 7.13 | 9.58 | 13.1 | 16.6 | 22.2 | 29.3 | 37
x2 = 0.7 | 5.8 | 7.49 | 9.93 | 13.1 | 16.7 | 21.9 | 28.4 | 35.8
x2 = 0.8 | 5.06 | 6.52 | 8.76 | 11.6 | 14.9 | 19.3 | 25.6 | 32.2
x2 = 0.9 | 4.28 | 5.36 | 7.23 | 9.43 | 11.7 | 15.1 | 20.7 | 26.7

OCCN(CCO)c1nc(N2CCCCC2)c2nc(N(CCO)CCO)nc(N3CCCCC3)c2n1 + CC(C)O + O
solubility (g/100 g solution)
Conditions | 293.15 K | 298.15 K | 303.15 K | 308.15 K | 313.15 K | 318.15 K | 323.15 K | 328.15 K
x2 = 0.3 | 4.66 | 6.62 | 8.49 | 11.6 | 14.9 | 19.9 | 27.3 | 32.8
x2 = 0.4 | 7.42 | 9.61 | 12.4 | 15.3 | 20.2 | 25.6 | 32.3 | 39.9
x2 = 0.5 | 8.69 | 11.8 | 14.9 | 18.1 | 21.7 | 27.7 | 33.4 | 39.5
x2 = 0.6 | 9.25 | 11.6 | 14.6 | 18 | 20.8 | 26.6 | 31.7 | 37.5
x2 = 0.7 | 8.37 | 9.97 | 12.7 | 15.8 | 19.1 | 23.7 | 28.6 | 33.6
x2 = 0.8 | 6.58 | 8.26 | 10.4 | 13.2 | 15.7 | 20 | 24 | 29
x2 = 0.9 | 4.8 | 6.08 | 7.64 | 9.93 | 11.6 | 15.1 | 18.8 | 23.2

COc1cc2c(cc1OC)-c1cc3ccc(OC)c(OC)c3c[n+]1CC2.[Cl-] + OCCO + O
solubility (g/100 g solution)
Conditions | 283.15 K | 288.15 K | 293.15 K | 298.15 K | 303.15 K | 308.15 K | 313.15 K | 318.15 K | 323.15 K | 328.15 K
x2 = 0.03125 | 1.2 | 1.46 | 1.83 | 2.28 | 2.8 | 3.39 | 4.08 | 4.86 | 5.75 | 6.75
x2 = 0.06767 | 1.25 | 1.51 | 1.89 | 2.35 | 2.88 | 3.48 | 4.19 | 4.98 | 5.89 | 6.91
x2 = 0.1107 | 1.33 | 1.6 | 1.99 | 2.47 | 3.02 | 3.65 | 4.37 | 5.2 | 6.13 | 7.19
x2 = 0.1622 | 1.41 | 1.69 | 2.09 | 2.58 | 3.15 | 3.8 | 4.55 | 5.4 | 6.36 | 7.45
x2 = 0.225 | 1.47 | 1.78 | 2.23 | 2.74 | 3.31 | 3.98 | 4.71 | 5.6 | 6.54 | 7.6
x2 = 0.3034 | 1.49 | 1.82 | 2.23 | 2.74 | 3.27 | 3.96 | 4.69 | 5.57 | 6.5 | 7.55
x2 = 0.4038 | 1.45 | 1.79 | 2.16 | 2.64 | 3.18 | 3.77 | 4.46 | 5.28 | 6.2 | 7.26
x2 = 0.5373 | 1.36 | 1.65 | 2.01 | 2.43 | 2.92 | 3.5 | 4.22 | 4.93 | 5.81 | 6.75
x2 = 0.7232 | 1.23 | 1.46 | 1.79 | 2.17 | 2.63 | 3.15 | 3.76 | 4.44 | 5.21 | 6.07
